Measurements reported in patent publication US11951094B2, “TLR2 modulator compounds, pharmaceutical compositions and uses thereof” (Axial Therapeutics, Inc., priority 2020, dated 2024).

The compounds below were run against TLR2 (Homo sapiens, UniProt O60603) (assay: TLR2 agonist screening assay, HEK-Blue TLR2 reporter cell line (NF-kB-driven SEAP, absorbance at 600 nm)). Details: HEK-Blue TLR2 reporter cells, agonist mode; average of all runs (Table 3).
Chain of TLR2 (O60603 21-784): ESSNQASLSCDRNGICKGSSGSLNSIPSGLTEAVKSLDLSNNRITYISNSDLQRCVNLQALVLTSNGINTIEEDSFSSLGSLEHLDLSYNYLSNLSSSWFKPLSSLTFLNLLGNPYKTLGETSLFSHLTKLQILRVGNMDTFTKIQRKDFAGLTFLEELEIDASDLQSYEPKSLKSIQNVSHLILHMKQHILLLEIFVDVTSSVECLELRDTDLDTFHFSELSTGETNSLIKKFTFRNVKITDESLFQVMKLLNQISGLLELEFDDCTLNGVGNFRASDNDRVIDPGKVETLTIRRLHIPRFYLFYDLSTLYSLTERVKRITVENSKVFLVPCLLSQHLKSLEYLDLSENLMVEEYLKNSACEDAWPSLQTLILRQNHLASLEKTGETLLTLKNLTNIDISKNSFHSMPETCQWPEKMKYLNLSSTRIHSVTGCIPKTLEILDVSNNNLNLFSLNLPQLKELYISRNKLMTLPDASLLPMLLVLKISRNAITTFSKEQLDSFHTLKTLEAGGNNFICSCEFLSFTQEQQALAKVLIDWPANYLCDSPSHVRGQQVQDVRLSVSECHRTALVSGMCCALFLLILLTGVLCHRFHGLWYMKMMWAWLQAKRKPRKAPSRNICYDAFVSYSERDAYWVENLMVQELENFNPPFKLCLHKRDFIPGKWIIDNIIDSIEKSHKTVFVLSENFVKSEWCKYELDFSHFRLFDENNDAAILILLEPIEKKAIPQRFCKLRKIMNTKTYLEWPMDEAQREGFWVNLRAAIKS
Type: cell-based
Set-up: host or cells: HEK-293 (HEK-Blue TLR2 reporter cell line)
Method in brief: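 TLR2 engagement is scored through NF-kB-induced secreted alkaline phosphatase in HEK-293 cells, detected by substrate colour change at 600 nm after overnight compound treatment at 1% final DMSO. Potency is expressed as EC50.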
In the case of `CCCCCCCCN1CCN(C(=O)c2ccc(C(=O)N3C[C@@H](C(=O)N[C@H]4C[C@@H]4c4ccccc4)[C@H](C(=O)N[C@H]4C[C@@H]4c4ccccc4)C3)cc2)C[C@H]1C(=O)NCCCCCC` [Compound 031], the EC50 is reported as greater than 1 µM. `CCCCCCNC(=O)[C@H](CCNC(=O)CCCCCC)NC(=O)c1ccc(C(=O)N2C[C@@H](C(=O)N[C@H]3C[C@@H]3c3ccccc3)[C@H](C(=O)N[C@H]3C[C@@H]3c3ccccc3)C2)cc1` [Compound 021] showed an EC50 greater than 1 µM. With `CCCCCCCCCCCCCCNC(=O)CC(C)(C)NC(=O)c1ccc(C(=O)N2C[C@@H](C(=O)N[C@H]3C[C@@H]3c3ccccc3)[C@H](C(=O)N[C@H]3C[C@@H]3c3ccccc3)C2)cc1` [Compound 011] the EC50 was greater than 1 µM. `CCCCCCNC(=O)[C@H](CNC(=O)CCCCCC)NC(=O)c1ccc(C(=O)N2C[C@@H](C(=O)N[C@H]3C[C@@H]3c3ccccc3)[C@H](C(=O)N[C@H]3C[C@@H]3c3ccccc3)C2)cc1` [Compound 015] showed an EC50 greater than 1 µM. With `CCCCCCNC(=O)[C@@H]1CN(C(=O)c2ccc(C(=O)N3C[C@@H](C(=O)N[C@H]4C[C@@H]4c4ccccc4)[C@H](C(=O)N[C@H]4C[C@@H]4c4ccccc4)C3)cc2)C[C@H]1O` (relative stereo) [Compound 033, (3S,4S)-1-(4-((3R*,4S*)-3-(hexylcarbamoyl)-4-hydroxypyrrolidine-1-carbonyl)benzoyl)-N3,N4-bis((1S,2R)-2-phenylcyclopropyl)pyrrolidine-3,4-dicarboxamide] the EC50 was 0.051 to 0.35 µM. `CCCCCCCC(=O)N1CCN(C(=O)c2ccc(C(=O)N3C[C@@H](C(=O)N[C@H]4C[C@@H]4c4ccccc4)[C@H](C(=O)N[C@H]4C[C@@H]4c4ccccc4)C3)cc2)CC1C(=O)NCCCCCC` (stereo partly drawn) [Compound 019, (3S,4S)-1-(4-(3-(hexylcarbamoyl)-4-octanoylpiperazine-1-carbonyl)benzoyl)-N3,N4-bis((1S,2R)-2-phenylcyclopropyl)pyrrolidine-3,4-dicarboxamide] showed an EC50 of 0.0001 to 0.05 µM.

Same assay, conditions: HEK-Blue TLR2 reporter cells, agonist mode; average of all runs (Table 4)
With `CCCCCCCCCCCCCCNC(=O)[C@@H]1CN(C(=O)c2ccc(C(=O)N3C[C@@H](C(=O)N[C@H]4C[C@@H]4c4ccccc4)[C@H](C(=O)N[C@H]4C[C@@H]4c4ccccc4)C3)cc2)CCN1C(=O)C(C)(C)C` [Compound 251, (3S,4S)—N3,N4-bis((1S,2R)-2-phenylcyclopropyl)-1-(4-((S)-4-pivaloyl-3-(tetradecylcarbamoyl)piperazine-1-carbonyl)benzoyl)pyrrolidine-3,4-dicarboxamide] the EC50 was greater than 1 µM. Compound `CCCCCCCCCCCCCCNC(=O)[C@H]1CN(S(=O)(=O)c2cccc(C(=O)N3C[C@@H](C(=O)N[C@H]4C[C@@H]4c4ccccc4)[C@H](C(=O)N[C@H]4C[C@@H]4c4ccccc4)C3)c2)CCN1C(C)=O` [Compound 192, (3S,4S)-1-(3-(((R)-4-acetyl-3-(tetradecylcarbamoyl)piperazin-1-yl)sulfonyl)benzoyl)-N3,N4-bis((1S,2R)-2-phenylcyclopropyl)pyrrolidine-3,4-dicarboxamide] has an EC50 of 0.351 to 1 µM. With `CCCCCCCCN1C(=O)N(Cc2ccc(C(=O)N3C[C@@H](C(=O)N[C@H]4C[C@@H]4c4ccccc4)[C@H](C(=O)N[C@H]4C[C@@H]4c4ccccc4)C3)cc2)C[C@H]1C(=O)NCCCCCC` [Compound 167, (3S,4S)-1-(4-(((S)-4-(hexylcarbamoyl)-3-octyl-2-oxoimidazolidin-1-yl)methyl)benzoyl)-N3,N4-bis((1S,2R)-2-phenylcyclopropyl)pyrrolidine-3,4-dicarboxamide] the EC50 was 0.0001 to 0.05 µM. In the case of `CCCCCCCC(=O)N1CCN(Cc2ccc(C(=O)N3C[C@@H](C(=O)N[C@H]4C[C@@H]4c4ccccc4)[C@H](C(=O)N[C@H]4C[C@@H]4c4ccccc4)C3)cc2)C[C@@H]1C(=O)NCCCCCC` [Compound 121, (3S,4S)-1-(4-(((R)-3-(hexylcarbamoyl)-4-octanoylpiperazin-1-yl)methyl)benzoyl)-N3,N4-bis((1S,2R)-2-phenylcyclopropyl)pyrrolidine-3,4-dicarboxamide], the EC50 is reported as 0.351 to 1 µM. Compound `CCCCCCCC(=O)N1CCCN(S(=O)(=O)c2cccc(C(=O)N3C[C@@H](C(=O)N[C@H]4C[C@@H]4c4ccccc4)[C@H](C(=O)N[C@H]4C[C@@H]4c4ccccc4)C3)c2)C[C@H]1C(=O)NCCCCCC` (single isomer, unassigned) [Compound 200] has an EC50 greater than 1 µM. `CCCCCCCC(=O)N1CCCN(C(=O)c2ccc(C(=O)N3C[C@@H](C(=O)N[C@H]4C[C@@H]4c4ccccc4)[C@H](C(=O)N[C@H]4C[C@@H]4c4ccccc4)C3)cc2)C[C@@H]1C(=O)NCCCCCC` (single isomer, unassigned) [Compound 146] gave an EC50 of 0.351 to 1 µM. In the case of `CCCCCCCCCCCCCCNC(=O)[C@@H]1CN(S(=O)(=O)c2cccc(C(=O)N3C[C@@H](C(=O)N[C@H]4C[C@@H]4c4ccccc4)[C@H](C(=O)N[C@H]4C[C@@H]4c4ccccc4)C3)c2)CCN1C(C)=O` [Compound 193, (3S,4S)-1-(3-(((S)-4-acetyl-3-(tetradecylcarbamoyl)piperazin-1-yl)sulfonyl)benzoyl)-N3,N4-bis((1S,2R)-2-phenylcyclopropyl)pyrrolidine-3,4-dicarboxamide], the EC50 is reported as 0.051 to 0.35 µM. In the case of `CCCCCCCCCCCCCCC(=O)N[C@H]1CCN(Cc2ccc(C(=O)N3C[C@@H](C(=O)N[C@H]4C[C@@H]4c4ccccc4)[C@H](C(=O)N[C@H]4C[C@@H]4c4ccccc4)C3)cc2)C1=O` [Compound 133, (3S,4S)-1-(4-(((S)-2-oxo-3-pentadecanamidopyrrolidin-1-yl)methyl)benzoyl)-N3,N4-bis((1S,2R)-2-phenylcyclopropyl)pyrrolidine-3,4-dicarboxamide], the EC50 is reported as greater than 1 µM. Work on `O=C1CCCCCCCCCCCCNC(=O)[C@H](CNC(=O)c2ccc(C(=O)N3C[C@@H](C(=O)N[C@H]4C[C@@H]4c4ccccc4)[C@H](C(=O)N[C@H]4C[C@@H]4c4ccccc4)C3)cc2)N1` [Compound 225, (3S,4S)-1-(4-((((S)-3,17-dioxo-1,4-diazacycloheptadecan-2-yl)methyl)carbamoyl)benzoyl)-N3,N4-bis((1S,2R)-2-phenylcyclopropyl)pyrrolidine-3,4-dicarboxamide] yielded an EC50 of 0.351 to 1 µM. With `CCCCCCCCCCCCCNC(=O)[C@@H]1CN(C(=O)c2ccc(C(=O)N3C[C@@H](C(=O)N[C@H]4C[C@@H]4c4ccccc4)[C@H](C(=O)N[C@H]4C[C@@H]4c4ccccc4)C3)cc2)CCN1C(C)=O` [Compound 254, (3S,4S)-1-(4-((S)-4-acetyl-3-(tridecylcarbamoyl)piperazine-1-carbonyl)benzoyl)-N3,N4-bis((1S,2R)-2-phenylcyclopropyl)pyrrolidine-3,4-dicarboxamide] the EC50 was greater than 1 µM. `CCCCCCCCCCCCCCCN[C@H]1CN(C(=O)c2ccc(C(=O)N3C[C@@H](C(=O)N[C@H]4C[C@@H]4c4ccccc4)[C@H](C(=O)N[C@H]4C[C@@H]4c4ccccc4)C3)cc2)C[C@@H]1O` [Compound 087, (3S,4S)-1-(4-((3S,4S)-3-hydroxy-4-(pentadecylamino)pyrrolidine-1-carbonyl)benzoyl)-N3,N4-bis((1S,2R)-2-phenylcyclopropyl)pyrrolidine-3,4-dicarboxamide] gave an EC50 greater than 1 µM. In the case of `CCCCCCCCN1CC(C(=O)NCCCCCC)CN(Cc2ccc(C(=O)N3C[C@@H](C(=O)N[C@H]4C[C@@H]4c4ccccc4)[C@H](C(=O)N[C@H]4C[C@@H]4c4ccccc4)C3)cc2)C1=O` (stereo partly drawn) [Compound 178, (3S,4S)-1-(4-((5-(hexylcarbamoyl)-3-octyl-2-oxotetrahydropyrimidin-1 (2H)-yl)methyl)benzoyl)-N3,N4-bis((1S,2R)-2-phenylcyclopropyl)pyrrolidine-3,4-dicarboxamide], the EC50 is reported as 0.351 to 1 µM. In the case of `CCCCCCNC(=O)[C@@H](CCNC(=O)c1ccc(C(=O)N2C[C@@H](C(=O)N[C@H]3C[C@@H]3c3ccccc3)[C@H](C(=O)N[C@H]3C[C@@H]3c3ccccc3)C2)cc1)NC(=O)CCCCCC` [Compound 120, (3S,4S)-1-(4-(((R)-3-heptanamido-4-(hexylamino)-4-oxobutyl)carbamoyl)benzoyl)-N3,N4-bis((1S,2R)-2-phenylcyclopropyl)pyrrolidine-3,4-dicarboxamide], the EC50 is reported as greater than 1 µM. For `CCCCCCCCCCCCCNC(=O)N[C@H]1CN(c2ncc(-c3ccc(C(=O)N4C[C@@H](C(=O)N[C@H]5C[C@@H]5c5ccccc5)[C@H](C(=O)N[C@H]5C[C@@H]5c5ccccc5)C4)cc3)o2)C[C@@H]1OC` [Compound 234, (3S,4S)-1-(4-(2-((3S,4S)-3-methoxy-4-(3-tridecylureido)pyrrolidin-1-yl)oxazol-5-yl)benzoyl)-N3,N4-bis((1S,2R)-2-phenylcyclopropyl)pyrrolidine-3,4-dicarboxamide], the EC50 was greater than 1 µM. `O=C(N[C@H]1C[C@@H]1c1ccccc1)[C@@H]1CN(C(=O)c2ccc(C(=O)N3C[C@@H](C(=O)N[C@H]4C[C@@H]4c4cccnc4)[C@H](C(=O)N[C@H]4C[C@@H]4c4cccnc4)C3)cc2)C[C@H]1C(=O)N[C@H]1C[C@@H]1c1ccccc1` (single isomer, unassigned) [Compound 094, (3S,4S)-1-(4-((3S,4S)-3,4-bis(((1S*,2R*)-2-(pyridin-3-yl)cyclopropyl)carbamoyl)pyrrolidine-1-carbonyl)benzoyl)-N3,N4-bis((1S,2R)-2-phenylcyclopropyl) pyrrolidine-3,4-dicarboxamide] gave an EC50 of 0.051 to 0.35 µM. `CCCCCCCCCCCCCCOC(=O)N[C@H]1CN(C(=O)c2ccc(C(=O)N3C[C@@H](C(=O)N[C@H]4C[C@@H]4c4ccccc4)[C@H](C(=O)N[C@H]4C[C@@H]4c4ccccc4)C3)cc2)C[C@@H]1OC` [Compound 218, Tetradecyl ((3S,4S)-1-(4-((3S,4S)-3,4-bis(((1S,2R)-2-phenylcyclopropyl)carbamoyl)pyrrolidine-1-carbonyl)benzoyl)-4-methoxypyrrolidin-3-yl)carbamate] was tested, and the EC50 was 0.351 to 1 µM. With `CCCCCCCCCCCCCCNC(=O)C1COC(=O)N(Cc2ccc(C(=O)N3C[C@@H](C(=O)N[C@H]4C[C@@H]4c4ccccc4)[C@H](C(=O)N[C@H]4C[C@@H]4c4ccccc4)C3)cc2)C1` (some centres unmarked) [Compound 179] the EC50 was greater than 1 µM.
